In patent publication US12552758B2, “Inhibitors of MLH1 and/or PMS2 for cancer treatment” (NeoPhore Limited, priority 2020, dated 2026):

Key:
[1] = target: T1, recombinant N-terminal MLH1 (residues 15-340) (Homo sapiens (Human), UniProt P40692); assay: Fluorescence polarisation assay for MLH1 (protocol for Examples 64, 76, 90 and 95); conditions: FP probe displacement, 100 nM N-terminal MLH1, 5 nM probe compound, non-binding surface plate, read immediately
Procedure: Fluorescence Polarisation Assay for MLH1 (Protocol for Examples 64, 76, 90 and 95)
Test compounds, as 10 mM DMSO stocks, were dispensed into a 384-well Low Flange Black Flat Bottom Polystyrene Non-binding Surface plate (Corning®, item number 3575) using a Labcyte Echo acoustic liquid handler. Test compounds were added to wells in columns 1-22 whilst DMSO was added to wells in columns 23 and 24 in order to normalise the plate. 20 μL of a 2× solution (200 nM) of recombinant N-terminal MLH1 (residues 15-340) in assay buffer (25 mM HEPES, pH 7.5, 250 mM NaCl, 10 mM MgCl2, 0.01% Triton X-100, 5 mM dithiothreitol) was added to all wells in columns 1-23 and 20 μL assay buffer was added to all wells in column 24 using an E1-ClipTip pipette (ThermoFisher). Plates were centrifuged for 1 minute at 250×g and were incubated at room temperature for 30 minutes prior to the addition of 20 μL of 2×(10 nM) 5-((5-(4-((2-(2,4-dihydroxy-5-isopropylbenzoyl)isoindolin-5-yl)methyl)piperazin-1-yl)pentyl)carbamoyl)-2-(6-(dimethylamino)-3-(dimethyliminio)-3H-xanthen-9-yl)benzoate in assay buffer (prepared from a 1 mM DMSO stock) with an E1-ClipTip pipette (ThermoFisher). The final concentration of N-terminal MLH1 was 100 nM and the final concentration of the probe compound was 5 nM. Compound plates were centrifuged for 1 minute at 250 xg for 1 minute and immediately read on a PheraStar FSX (fitted with 384-well aperture spoon and 590 675 675 FP optic module). The gain and focus were adjusted before each plate was read so that the polarisation of a no enzyme control (column 24) was equal to 35 mP. Data were normalised against the no inhibitor controls (column 23) and no enzyme controls (column 24).

[2] = target: recombinant N-terminal PMS2 (residues 1-365) (Homo sapiens (Human), UniProt P54278); assay: Fluorescence polarisation assay for PMS2; type: binding; conditions: FP probe displacement; 10 nM N-terminal PMS2, 5 nM probe compound, read after 1 hour
In short: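 Displacement of a 5 nM (final) fluorescent probe from 10 nM human PMS2 (residues 1–365) is read as polarisation after 1 h at room temperature, following 30 min compound–protein pre-incubation. No-enzyme (set to 35 mP) and no-inhibitor wells define normalisation.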

[3] = target: T1, recombinant N-terminal MLH1 (residues 15-340); assay: Fluorescence polarisation assay for MLH1 (protocol for all Examples except Examples 64, 76, 90 and 95); type: binding; conditions: FP probe displacement; 100 nM N-terminal MLH1, 5 nM probe compound, read after 15 minutes; all Examples except 64, 76, 90 and 95
In short: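 N-terminal MLH1 (100 nM final) preincubated with compounds 30 min at room temperature, then rhodamine-labelled resorcinol probe added (5 nM final); fluorescence polarisation read after 15 min. Signal normalised to no-inhibitor and no-enzyme controls; serial dilutions for potency, single concentration for screening.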

T1 sequence (P40692 15-340): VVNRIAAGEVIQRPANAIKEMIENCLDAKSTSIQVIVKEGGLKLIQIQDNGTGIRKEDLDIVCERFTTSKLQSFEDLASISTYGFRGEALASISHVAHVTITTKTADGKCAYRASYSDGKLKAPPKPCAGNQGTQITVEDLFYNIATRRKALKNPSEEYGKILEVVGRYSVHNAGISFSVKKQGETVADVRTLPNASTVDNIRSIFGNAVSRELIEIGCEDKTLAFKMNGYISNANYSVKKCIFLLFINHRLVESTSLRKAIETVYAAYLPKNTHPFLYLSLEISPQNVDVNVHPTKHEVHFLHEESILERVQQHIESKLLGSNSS
recombinant N-terminal PMS2 (residues 1-365), sequence (P54278 1-365): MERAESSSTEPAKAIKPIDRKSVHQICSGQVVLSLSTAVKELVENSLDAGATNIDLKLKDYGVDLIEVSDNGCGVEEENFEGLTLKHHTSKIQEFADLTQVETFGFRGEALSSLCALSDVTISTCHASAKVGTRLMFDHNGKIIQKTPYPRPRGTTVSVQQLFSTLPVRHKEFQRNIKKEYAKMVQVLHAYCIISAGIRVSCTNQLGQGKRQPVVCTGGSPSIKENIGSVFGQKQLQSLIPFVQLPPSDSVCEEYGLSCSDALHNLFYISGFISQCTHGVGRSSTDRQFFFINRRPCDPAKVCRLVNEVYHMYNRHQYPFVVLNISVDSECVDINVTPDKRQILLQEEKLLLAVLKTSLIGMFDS

IC50 [1] [µM]	IC50 [2] [µM]	IC50 [3] [µM]	SMILES
> 10	1 to 10		Cc1c(O)cc(O)c(C(=O)N2Cc3ccccc3C[C@@H]2CO)c1OCc1ccccc1 [Example 64, (R)-(2-(benzyloxy)-4,6-dihydroxy-3-methylphenyl)(3-(hydroxymethyl)-3,4-dihydroisoquinolin-2(1H)-yl)methanone]
> 10	1 to 10		Cc1c(O)cc(O)c(C(=O)N2Cc3cccc(CN4CCOCC4)c3C2)c1OCc1ccccc1 [Example 76, (2-(Benzyloxy)-4,6-dihydroxy-3-methylphenyl)(4-(morpholinomethyl)isoindolin-2-yl)methanone]
> 10	< 1		Cc1c(O)cc(O)c(C(=O)N2Cc3cccc(OCc4cncnc4)c3C2)c1OCc1ccccc1 [Example 90, (2-(Benzyloxy)-4,6-dihydroxy-3-methylphenyl)(4-(pyrimidin-5-ylmethoxy)isoindolin-2-yl)methanone]
	< 1	> 10	CCOc1c(C)c(O)cc(O)c1C(=O)N1Cc2ccc(CN3CCN(C)CC3)cc2C1 [Example 93, (2-Ethoxy-4,6-dihydroxy-3-methylphenyl)(5-((4-methylpiperazin-1-yl)methyl)isoindolin-2-yl)methanone]
	< 1	> 10	Cc1c(O)cc(O)c(C(=O)N2Cc3ccc(CN4CCN(C)CC4)cc3C2)c1OCC1CCCCC1 [Example 94, (2-(Cyclohexylmethoxy)-4,6-dihydroxy-3-methylphenyl)(5-((4-methylpiperazin-1-yl)methyl)isoindolin-2-yl)methanone]
> 10	< 1		Cc1c(O)cc(O)c(C(=O)N2Cc3ccc(CN4CCN(C)CC4)cc3C2)c1OCC1CC1 [Example 95, (2-(Cyclopropylmethoxy)-4,6-dihydroxy-3-methylphenyl)(5-((4-methylpiperazin-1-yl)methyl)isoindolin-2-yl)methanone]
